Patent publication US20190367516A1 (Bayer Pharma Aktiengesellschaft, priority 2015, published 2019)

Biological target: T1, human M2 receptor (Homo sapiens, UniProt P08172)
T1 sequence (P08172 1-466): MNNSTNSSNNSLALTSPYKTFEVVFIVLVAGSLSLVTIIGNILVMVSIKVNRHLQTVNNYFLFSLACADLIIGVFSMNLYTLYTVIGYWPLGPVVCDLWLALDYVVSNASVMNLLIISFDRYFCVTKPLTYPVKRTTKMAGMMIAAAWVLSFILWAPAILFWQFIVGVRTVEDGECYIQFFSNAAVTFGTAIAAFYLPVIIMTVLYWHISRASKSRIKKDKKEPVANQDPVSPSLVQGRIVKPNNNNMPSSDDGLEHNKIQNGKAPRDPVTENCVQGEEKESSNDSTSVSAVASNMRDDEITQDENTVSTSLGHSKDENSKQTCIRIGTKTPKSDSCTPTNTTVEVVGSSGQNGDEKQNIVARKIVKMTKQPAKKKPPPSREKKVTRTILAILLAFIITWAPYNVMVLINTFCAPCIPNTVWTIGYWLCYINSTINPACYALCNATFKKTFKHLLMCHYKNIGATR
Details: Receptor activity EC50, M2-GIRK1/4 activation test, acetylcholine at EC20; allosteric potency; in some cases mean values from two or more determinations

SMILES	EC50 [nM]
O=C(NC12CC3CC(CC(C3)C1)C2)c1cn(-c2ccc(F)cc2F)c2nc(N3CCCCC3=O)ccc2c1=O [Example 165, 1-(2,4-Difluorophenyl)-4-oxo-7-(2-oxopiperidin-1-yl)-N-(tricyclo[3.3.1.1^3,7]dec-1-yl)-1,4-dihydro-1,8-naphthyridine-3-carboxamide]	11
O=C(NC12CC3CC(CC(C3)C1)C2)c1cn(-c2ccc(F)cc2F)c2nc(N3CCCS3(=O)=O)ccc2c1=O [Example 167]	47
CN(c1ccc2c(=O)c(C(=O)NC34CC5CC(CC(C5)C3)C4)cn(-c3ccc(F)cc3F)c2n1)S(C)(=O)=O [Example 169]	101
O=C(NC12CC3CC(CC(C3)C1)C2)c1cn(-c2ccc(F)cc2F)c2nc(N3C[C@@H](O)CC3=O)ccc2c1=O [Example 170]	19
O=C(NC12CC3CC(CC(C3)C1)C2)c1cn(-c2ccc(F)cc2F)c2nc(N3CC(F)(F)CCC3=O)ccc2c1=O [Example 171]	30
O=C(NC12CC3CC(CC(C3)C1)C2)c1cn(-c2ccc(F)cc2F)c2nc(N3CCOCC3=O)ccc2c1=O [Example 172]	83
O=C(NC12CC3CC(CC(C3)C1)C2)c1cn(-c2ccc(F)cc2F)c2nc(N3CCC(O)CC3=O)ccc2c1=O (stereo not drawn) [Example 173]	88
CC[C@@H](NC(=O)c1cn(-c2ccc(F)cc2F)c2nc(N3CCCCC3=O)ccc2c1=O)C(F)(F)F [Example 178]	197
CC(NC(=O)c1cn(-c2ccc(F)cc2F)c2nc(N3CCCC3=O)ccc2c1=O)C(F)(F)F (stereo not drawn) [Example 179]	169
CCC(NC(=O)c1cn(-c2ccc(F)cc2F)c2nc(N3CCCS3(=O)=O)ccc2c1=O)C(F)(F)F (stereo not drawn) [Example 180]	115
O=C(NCc1c(Cl)cccc1Cl)c1cn(-c2ccc(F)cc2F)c2nc(N3CCCS3(=O)=O)ccc2c1=O [Example 182, N-(2,6-Dichlorobenzyl)-1-(2,4-difluorophenyl)-7-(1,1-dioxido-1,2-thiazolidin-2-yl)-4-oxo-1,4-dihydro-1,8-naphthyridine-3-carboxamide]	182
CC(C)(NC(=O)c1cn(-c2ccc(F)cc2F)c2nc(N3CCNC3=O)ccc2c1=O)c1c(F)cccc1F [Example 184, 1-(2,4-Difluorophenyl)-N-[2-(2,6-difluorophenyl)propan-2-yl]-4-oxo-7-(2-oxoimidazolidin-1-yl)-1,4-dihydro-1,8-naphthyridine-3-carboxamide]	129
O=C(NC12CC3CC(CC(C3)C1)C2)c1cn(-c2ccc(F)cc2F)c2nc(N3CCNC3=O)ccc2c1=O [Example 186, 1-(2,4-Difluorophenyl)-4-oxo-7-(2-oxoimidazolidin-1-yl)-N-(tricyclo[3.3.1.1^3,7]dec-1-yl)-1,4-dihydro-1,8-naphthyridine-3-carboxamide]	30
CC[C@@H](NC(=O)c1cn(-c2ccc(F)cc2F)c2nc(N3CC(OC(=O)NC)CC3=O)ccc2c1=O)C(F)(F)F (stereo partly drawn) [Example 200, (3S)-1-[8-(2,4-Difluorophenyl)-5-oxo-6-{[(2R)-1,1,1-trifluorobutan-2-yl]carbamoyl}-5,8-dihydro-1,8-naphthyridin-2-yl]-5-oxopyrrolidin-3-yl methyl carbamate]	293
CC(NC(=O)c1cn(-c2ccc(F)cc2F)c2nc(N3C[C@@H](O)CC3=O)ccc2c1=O)c1ccccc1F (stereo partly drawn) [Example 235, 1-(2,4-Difluorophenyl)-N-[1-(2-fluorophenyl)ethyl]-7-[(4S)-4-hydroxy-2-oxopyrrolidin-1-yl]-4-oxo-1,4-dihydro-1,8-naphthyridine-3-carboxamide]	207
COCC(C)(NC(=O)c1cn(-c2ccc(F)cc2F)c2nc(N3C[C@@H](O)CC3=O)ccc2c1=O)C(F)(F)F (stereo partly drawn) [Example 236, 1-(2,4-Difluorophenyl)-7-[(4S)-4-hydroxy-2-oxopyrrolidin-1-yl]-4-oxo-N-[1,1,1-trifluoro-3-methoxy-2-methylpropan-2-yl]-1,4-dihydro-1,8-naphthyridine-3-carboxamide]	860
O=C(NC1(C(F)(F)F)CCOCC1)c1cn(-c2ccc(F)cc2F)c2nc(N3C[C@@H](O)CC3=O)ccc2c1=O [Example 237, 1-(2,4-Difluorophenyl)-7-[(4S)-4-hydroxy-2-oxopyrrolidin-1-yl]-4-oxo-N-[4-(trifluoromethyl)tetrahydro-2H-pyran-4-yl]-1,4-dihydro-1,8-naphthyridine-3-carboxamide]	751
O=C(NC(c1c(F)cccc1F)C(F)(F)F)c1cn(-c2ccc(F)cc2F)c2nc(N3CCCC(O)C3=O)ccc2c1=O (stereo not drawn) [Example 247, 1-(2,4-Difluorophenyl)-N-[1-(2,6-difluorophenyl)-2,2,2-trifluoroethyl]-7-[3-hydroxy-2-oxopiperidin-1-yl]-4-oxo-1,4-dihydro-1,8-naphthyridine-3-carboxamide]	160
CC[C@@H](NC(=O)c1cn(-c2ccc(F)cc2F)c2nc(N3C[C@@H](C(=O)OC)OC3=O)ccc2c1=O)C(F)(F)F [Example 257, Methyl (5S)-3-[8-(2,4-difluorophenyl)-5-oxo-6-{[(2R)-1,1,1-trifluorobutan-2-yl]carbamoyl}-5,8-dihydro-1,8-naphthyridin-2-yl]-2-oxo-1,3-oxazolidine-5-carboxylate]	138
O=C(NC(c1ccccc1Cl)C(F)(F)F)c1cn(-c2ccc(F)cc2F)c2nc(N3CC[C@H](O)C3=O)ccc2c1=O (stereo partly drawn) [Example 298, N-[1-(2-Chlorophenyl)-2,2,2-trifluoroethyl]-1-(2,4-difluorophenyl)-7-[(3S)-3-hydroxy-2-oxopyrrolidin-1-yl]-4-oxo-1,4-dihydro-1,8-naphthyridine-3-carboxamide]	74
O=C(NC(c1ccccc1Cl)C(F)(F)F)c1cn(-c2ccc(F)cc2F)c2nc(N3CC[C@@H](O)C3=O)ccc2c1=O (stereo partly drawn) [Example 299, N-[1-(2-Chlorophenyl)-2,2,2-trifluoroethyl]-1-(2,4-difluorophenyl)-7-[(3R)-3-hydroxy-2-oxopyrrolidin-1-yl]-4-oxo-1,4-dihydro-1,8-naphthyridine-3-carboxamide]	56
O=C(NC(c1c(F)cccc1F)C(F)(F)F)c1cn(-c2ccc(F)cc2F)c2nc(N3CC[C@@H](O)C3=O)ccc2c1=O (stereo partly drawn) [Example 300, 1-(2,4-Difluorophenyl)-N-[1-(2,6-difluorophenyl)-2,2,2-trifluoroethyl]-7-[(3R)-3-hydroxy-2-oxopyrrolidin-1-yl]-4-oxo-1,4-dihydro-1,8-naphthyridine-3-carboxamide]	54
CC[C@@H](NC(=O)c1cn(-c2c(F)cccc2Cl)c2nc(N3CC[C@@H](O)C3=O)ccc2c1=O)C(F)(F)F [Example 308, 1-(2-Chloro-6-fluorophenyl)-7-[(3R)-3-hydroxy-2-oxopyrrolidin-1-yl]-4-oxo-N-[(2R)-1,1,1-trifluorobutan-2-yl]-1,4-dihydro-1,8-naphthyridine-3-carboxamide]	30
CC[C@@H](NC(=O)c1cn(-c2c(F)cccc2Cl)c2nc(N3CC[C@H](O)C3=O)ccc2c1=O)C(F)(F)F [Example 309, 1-(2-Chloro-6-fluorophenyl)-7-[(3S)-3-hydroxy-2-oxopyrrolidin-1-yl]-4-oxo-N-[(2R)-1,1,1-trifluorobutan-2-yl]-1,4-dihydro-1,8-naphthyridine-3-carboxamide]	40
CC[C@@H](NC(=O)c1cn(-c2ccc(F)cc2F)c2nc(N3CCN(C)C3=O)ccc2c1=O)C(F)(F)F [Example 321, 1-(2,4-Difluorophenyl)-7-(3-methyl-2-oxoimidazolidin-1-yl)-4-oxo-N-[(2R)-1,1,1-trifluorobutan-2-yl]-1,4-dihydro-1,8-naphthyridine-3-carboxamide]	43
C[C@@H](COC(F)(F)F)NC(=O)c1cn(-c2c(F)cc(F)cc2Cl)c2nc(N3C[C@@H](O)[C@H](O)C3)ccc2c1=O [Example 322, 1-(2-Chloro-4,6-difluorophenyl)-7-[(3R,4R)-3,4-dihydroxypyrrolidin-1-yl]-4-oxo-N-[(2S)-1-(trifluoromethoxy)propan-2-yl]-1,4-dihydro-1,8-naphthyridine-3-carboxamide]	40
CC[C@@H](NC(=O)c1cn(-c2c(F)cc(F)cc2F)c2nc(N3CCC(C)(O)C3)ccc2c1=O)C(F)(F)F (stereo partly drawn) [Example 324, 7-[3-Hydroxy-3-methylpyrrolidin-1-yl]-4-oxo-N-[(2R)-1,1,1-trifluorobutan-2-yl]-1-(2,4,6-trifluorophenyl)-1,4-dihydro-1,8-naphthyridine-3-carboxamide]	34
CC[C@H](NC(=O)c1cn(-c2c(F)cccc2F)c2nc(N3CCC(C)(O)C3)ccc2c1=O)C(F)(F)F (stereo partly drawn) [Example 327, 1-(2,6-Difluorophenyl)-7-[3-hydroxy-3-methylpyrrolidin-1-yl]-4-oxo-N-[(2S)-1,1,1-trifluorobutan-2-yl]-1,4-dihydro-1,8-naphthyridine-3-carboxamide]	69
CC[C@@H](NC(=O)c1cn(-c2ccc(F)cc2F)c2nc(N3CC(C)(OC)C3)ccc2c1=O)C(F)(F)F [Example 328, 1-(2,4-Difluorophenyl)-7-(3-methoxy-3-methyazetidin-1-yl)-4-oxo-N-[(2R)-1,1,1-trifluorobutan-2-yl]-1,4-dihydro-1,8-naphthyridine-3-carboxamide]	79
CC[C@H](NC(=O)c1cn(-c2c(F)cc(F)cc2Cl)c2nc(N3C[C@@](C)(O)C[C@H]3C)ccc2c1=O)C(F)(F)F [Example 334, 1-(2-Chloro-4,6-difluorophenyl)-7-[(2R,4S)-4-hydroxy-2,4-dimethylpyrrolidin-1-yl]-4-oxo-N-[(2S)-1,1,1-trifluorobutan-2-yl]-1,4-dihydro-1,8-naphthyridine-3-carboxamide]	7
